Reference: paper PMC11305387, “AlphaFold accelerated discovery of psychotropic agonists targeting the trace amine–associated receptor 1” (Science Advances, 2024)

Assays:
[1] = tested on: TAAR1-WT and TAAR1-KO mice; assay: Core-body temperature (CBT) measurement; assay type: in vivo
Protocol: Core temperature was determined by a rectal thermoprobe. Compounds or vehicle was administered intraperitoneally. A basal measurement was performed immediately before injection. Measurements were repeated every 30 min for 2 hours. Mean changes in CBT were calculated by subtracting the value from vehicle treated group at the corresponding time point. A washout of 1 week between different doses of compound 65 was applied, and mice were injected starting with the lowest dose first.

5-HT1D receptor = target: T1, 5-HT1D receptor (Homo sapiens, UniProt P28221); assay: PRESTO-TANGO β-arrestin recruitment; assay type: cell-based
T1 construct: TANGO fusion module (own knowledge, Kroeze et al.: C-terminal V2 tail, TEV site and tTA); 1000000068; host or cells: HTLA (HEK293-derived)
T1 sequence (P28221 whole entry, the tested form may be a part): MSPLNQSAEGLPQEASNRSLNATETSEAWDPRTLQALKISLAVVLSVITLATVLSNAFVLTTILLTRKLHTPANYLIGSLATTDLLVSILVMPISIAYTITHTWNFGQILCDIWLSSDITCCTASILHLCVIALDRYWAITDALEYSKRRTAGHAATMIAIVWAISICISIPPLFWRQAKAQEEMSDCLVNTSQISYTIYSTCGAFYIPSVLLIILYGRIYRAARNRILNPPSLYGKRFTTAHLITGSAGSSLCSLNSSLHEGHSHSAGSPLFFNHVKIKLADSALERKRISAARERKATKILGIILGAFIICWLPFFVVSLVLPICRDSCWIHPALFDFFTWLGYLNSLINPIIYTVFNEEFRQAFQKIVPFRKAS
Protocol: Assessment of receptor activation by compounds at all human aminergic receptors were carried out using a modified version of the PRESTO-TANGO method. […] The plate was spun down, and 5 μl of a 1:25 dilution (in DPBS) of polyethylenimine (PEI) derivative (Transporter 5, Polysciences) was added (1:4 cDNA to PEI ratio) and incubated for 20 min at room temperature (RT). […] Luminescence signal was detected using a plate-reader (SPARK, Tecan) with 100-ms integration time and a 100-ms delay between well reads.

hTAAR1 = target: T2, hTAAR1 (Homo sapiens, UniProt Q96RJ0); assay: cAMP accumulation assay (GloSensor-22F); assay type: cell-based
T2 construct: expressed in transfected cells; host or cells: Expi293F
T2 sequence (Q96RJ0 1-339): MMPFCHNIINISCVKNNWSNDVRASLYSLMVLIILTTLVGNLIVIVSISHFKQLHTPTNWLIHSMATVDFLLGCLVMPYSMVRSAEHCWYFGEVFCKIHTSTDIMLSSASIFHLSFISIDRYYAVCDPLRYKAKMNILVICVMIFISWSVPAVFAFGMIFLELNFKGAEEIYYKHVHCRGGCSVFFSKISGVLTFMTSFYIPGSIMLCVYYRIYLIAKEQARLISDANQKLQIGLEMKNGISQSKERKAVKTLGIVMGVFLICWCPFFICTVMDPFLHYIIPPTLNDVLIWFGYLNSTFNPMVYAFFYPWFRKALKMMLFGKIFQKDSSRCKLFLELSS
Protocol: cAMP accumulation was assessed using a previously described system with some modifications ([45]). hTAAR1 and GloSensor-22F were transected with a 1:1 gene dose (1 μg/ml) in Expi293F cells for 48 hours. Cells were then resuspended in assay buffer [Hanks’ balanced salt solution (HBSS), 10 mM Hepes, 2 mM […] (Promega), and 300 μM 3-isobutyl-1-methylxanthine (Sigma-Aldrich)] and seeded with 25,000 cells per well to a white 384-well plate (CulturPlate, PerkinElmer) and incubated for 1 hour in the dark at RT. After a baseline read, compounds were added, and the plate was read for a further 1 hour (SPARK 10 M, Tecan) with 10-min intervals. The final read at 1 hour was used for analysis.

α2A receptor = target: T3, α2A receptor (Homo sapiens, UniProt P08913); assay: PRESTO-TANGO β-arrestin recruitment; assay type: cell-based
T3 construct: TANGO fusion module (own knowledge, Kroeze et al.: C-terminal V2 tail, TEV site and tTA); 1000000068; host or cells: HTLA (HEK293-derived)
T3 sequence (P08913 1-465): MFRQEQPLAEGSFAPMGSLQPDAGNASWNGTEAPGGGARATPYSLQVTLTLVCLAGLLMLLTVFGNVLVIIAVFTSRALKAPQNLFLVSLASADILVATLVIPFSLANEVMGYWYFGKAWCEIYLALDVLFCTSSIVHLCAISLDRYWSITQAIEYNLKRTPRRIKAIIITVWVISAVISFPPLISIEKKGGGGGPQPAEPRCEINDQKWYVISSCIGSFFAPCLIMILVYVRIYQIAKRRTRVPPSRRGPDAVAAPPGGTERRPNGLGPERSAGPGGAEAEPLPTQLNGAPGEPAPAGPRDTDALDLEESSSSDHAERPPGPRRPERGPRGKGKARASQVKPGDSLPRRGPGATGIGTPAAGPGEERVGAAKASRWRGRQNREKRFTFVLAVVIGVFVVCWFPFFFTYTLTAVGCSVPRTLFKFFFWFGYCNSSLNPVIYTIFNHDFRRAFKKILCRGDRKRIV

WT and TAAR1-KO mice = assay: Pre-pulse inhibition (PPI) behavioral assay; assay type: in vivo; conditions: compound 65 1 mg/kg, risperidone 0.2 mg/kg i.p.
Protocol: Measurements were performed using startle response chambers (San Diego Instruments, San Diego, CA, USA). Each chamber is sound-isolated and contains a Plexiglass animal enclosure attached to a platform and a loudspeaker that can produce both continuous white noise and acoustic pulses of varying intensities. The animal enclosure is large enough for the animal to turn around and make other movements to reduce restraint stress. Mouse startle responses to acoustic stimuli are transformed by a piezoelectric transducer under the platform into an analog signal. The transducers were calibrated before each experiment using a standardization unit (San Diego Instruments, San Diego, CA, USA), and the speakers were calibrated using a Type 2670 Microphone Preamplifier, a Type 4230 Sound Level Calibrator, and a Type 2610 Measuring Amplifier (Brüel & Kjær, Nærum, Denmark). To habituate the mice to the chambers, they were placed in the enclosure for 5 min, with 65-dB background white noise, on three different days before the start of experiments. PPI measurements were then conducted on each mouse on four occasions separated by 96 hours. The first occasion was a mock test session where all mice were injected with vehicle, serving to reduce the effect of novelty on subsequent sessions. The next three sessions were true test sessions with injection of either compound 65, risperidone, or vehicle. The R package agricolae was used to generate a randomized block design, randomizing treatment order across sex, genotype, and test session.
Animals were brought to the testing room for habituation 60 min before the starting of tests. Thirty minutes before PPI measurements, mice were injected with either compound 65 (1 mg/kg), risperidone (0.2 mg/kg), or vehicle intraperitoneally. Each test session started with a 5-min background noise (65-dB white noise) habituation period. The background noise continued throughout the test session. The habituation period was followed by four blocks of trials, with the first and last blocks consisting of five pulse-only trials (40-ms, 120-dB pulse). During block 2, five trial types were presented five times each in a pseudo-randomized order. The trial types included pulse only, no stimulus (NOSTIM), and three different pre-pulse trials in which 20 ms pre-pulses of different intensities (68, 71, or 77 dB) preceded the startle pulse (120 dB) by a 100-ms interval. Block 3 contained the same numbers and types of trials as block 2, but in a different pseudorandom order. […] PPI data are shown as PPI%, which was calculated as [1 − (pre-pulse trials/startle-only trials)] × 100. Mean PPI was calculated by adding the average PPI% for all pre-pulse intensities (3, 6, and 12 dB) and dividing it by the number (i.e., 3) of pre-pulse intensities.

## CC1=C(c2ccco2)CNCC1 [Compound 65]
[1]; TAAR1-KO mice
  effect on CBT: no decrease in CBT was observed
[1]; TAAR1-WT mice
  maximal reduction of CBT, 5 mg/kg versus 1 mg/kg: did not observe a significant increase in the maximal reduction of CBT
[1]; TAAR1-WT mice, 0.5 and 1 mg/kg
  time of peak CBT reduction after injection: 30 min
  time to return of CBT to baseline: 2 h
[1]; TAAR1-WT mice, 0.5 and 1 mg/kg i.p.
  effect on CBT: reduction of CBT
[1]; WT mice, 1 mg/kg, 30 and 60 min after injection
  extent of CBT reduction: ~ 1 °C
5-HT1D receptor
  EC50: > 1000 nM
  Emax: 75%
5-HT1D receptor; panel screen
  agonism at the 5-HT1D receptor: agonism
hTAAR1
  EC50: 0.398 nM
α2A receptor
  EC50: 1000 nM
α2A receptor; concentration-response curves
  Emax: 110%
α2A receptor; panel screen
  agonism at the α2A receptor: agonism
WT and TAAR1-KO mice; TAAR1-KO mice
  effect on PPI: did not observe any change in PPI
WT and TAAR1-KO mice; WT mice
  effect on PPI: elevated PPI at both 3- and 6-dB pre-pulse levels
